US20030157573A1, “Use of Axl receptor for diagnosis and treatment of renal disease” (priority 2002, published 2003)
Where a name gives a salt, the structure may show the parent alone.

Columns and labels:
[1] = tested on: Normal human fetal lung fibroblasts (WI-38); assay: Collagen production assay ([3H]-proline incorporation into collagenous proteins); format: cell-based; conditions: concentrations of 2-20 ng/ml
Procedure: (§1) Normal human fetal lung fibroblasts (WI-38, Coriell Cell Repositories) were cultured and sub-cultured in DMEM, supplemented with 10% inactivated fetal bovine serum (FBS), 2 mM L-glutamine, 100 U/ml penicillin, 100 μg/ml streptomycin. Fibroblasts were grown to confluence in 25 cm^2 tissue flasks and sub-cultured after trypsinization (0.5% trypsin-EDTA in Hank's balanced solution without Ca^2+ and Mg^2+) at 37° C. in an atmosphere of 5% CO2. Two ml of trypsin were added to each flask and incubated for 5 min; then cultures were centrifuged (5 min, 1000 rpm) and fresh medium was added to the pellet. Splitting conditions were 1:4-1:6.
Collagen production by confluent fibroblast monolayers was assessed by [^3H]-proline incorporation into collagenous proteins. Fibroblasts were seeded in 24-well tissue culture plates (2×10^4/well) and grown in 1 ml of supplemented DMEM/10%FBS until confluence.
Confluent fibroblast cultures were incubated with prepared solutions for either 24 or 48 hr. […] The production of collagen was determined as the difference between total [^3H]proline-containing proteins in the sample incubated without collagenase and those left after collagenase digestion. To determine the number of cells in each well, fibroblasts were detached by trypsinization on the last day of the experiment, and counted in a hemocytometer. […]

Ax1 [2] = assay: Western blot analysis of endogenous Ax1 expression after TGF-β stimulation; format: cell-based, rat
Procedure: FIG. 1. […] Lane 1: NRK 49F cells; Lane2: NRK 49F cells with TGF-β 5 ng/ml, 24 hr; Lane 3: Rat1 cells; Lane4: Rat1 cells+TGF-β 5 ng/ml, 24 hr; Lane 5: W138 cells; Lane 6: HeLa cells; Lane 7: 293 cells.
FIG. 2. […] Total cell lysates from Rat1 cells exposed to TGF-β stimulation (5 ng/ml for 15 minutes, 30 minutes, 60 minutes and 2 hours) were run on gel and probed with anti Ax1 C20 Ab (Western blot analysis). Samples in the first and last lane are from cells without TGF-β stimulation.
In order to verify the chip hybridization results, the response of endogenous Ax1 expression to TGF-β stimulation was monitored by Western blot analysis. Total cellular proteins from various cell lines, (of which Rat1 cell line was also stimulated by TGF-β (5 ng/ml for 24 hr) were extracted, and the expression of Ax1 was analyzed by Western blot analysis. Thirty (30) μg of total cellular lysate were run on an 8% SDS gel.
(§2) Further experiments were done on Rat1 cells that were serum starved for 24 hr and then stimulated for the indicated time (15 min-2 hr) with 5 ng/ml TGF-β.

[3] = tested on: Normal human fetal lung fibroblasts (WI-38); assay: Fibroblast proliferation assay (neutral red staining); format: cell-based; conditions: for decrease in fibroblast proliferation: DFO
Procedure: as §1
The proliferation rate of sub-confluent fibroblasts was evaluated by staining with neutral red (BioRad). Fibroblasts were seeded in 96-well plate (6×10^3/well) in 200 μl of supplemented DMEM/10% FBS. After overnight culture, wells were washed twice with supplemented DMEM/20% FBS. Then, either TGF-β (2-20 ng/ml) or deferoxamine mesylate (DFO, which leads to conditions of chemical hypoxia) at a concentration of […] was added in 200 μl of supplemented DMEM/2% FBS for either 16 hours, 24 hours, 72 hours, or 5 days.
In the case of glucose treatments, after overnight culture, cell-containing wells were washed twice with supplemented glucose-free DMEM/2% FBS. Working concentrations of glucose (5.5 mM, 15 mM, 27.5 mM, or 55 mM) were prepared by dissolving stock solution (110 mM) in supplemented DMEM without glucose/2% FBS. Prepared solutions of glucose were added to fibroblast cultures for either 24 or 72 hours.
Upon completion of incubation, cells were stained with 100 μl of 1% neutral red for 2 hours. After washing with cold PBS, fibroblast monolayers were fixed with 200 μl of ethanol-Sorenson buffer solution (1:1) for 10 min. Optical density was measured with an automated spectrophotometer (λ=540 nm).

Ax1 [4] = assay: Ax1 immunoprecipitation and anti-phosphotyrosine blot after TGF-β stimulation; format: cell-based, rat; conditions: serum starved Rat1 cells, 5 ng/ml TGF-β, 15 min-2 hr
Procedure: FIG. 3. […] Rat1 cells exposed to TGF-β stimulation (5 ng/ml for 15 minutes, 30 minutes, 60 minutes and 2 hours) were used for immunoprecipitation. Ax1 was immunoprecipited with anti Ax1 M-20. Anti phosphotyrosine antibodies were used to monitor ax1 phosphorylation state following TGF-β treatment (5 ng/ml for 15 minutes-2 hr). Samples in the first and last lane are from cells without TGF-β stimulation.
as §2

Ax1 [5] = assay: Microarray hybridization of treated human fibroblasts (Fibrosis DNA chip); format: cell-based; conditions: TGF-β treatment of human fibroblasts
Procedure: Microarray-based analysis of gene expression was based on the analysis of human fibroblasts subject to selected stimuli resulting in changes in extracellular collagen accumulation and proliferation—the hallmarks of fibrosis. According to the present invention, a specific “Fibrosis” DNA chip was first prepared followed by a microarray hybridization experiments with 19 different types of probes. Analysis of the results was carried out by proprietary algorithms, and analysis of the selected set of genes was performed by using bioinformatics and the scienctific literature.
A dedicated human “Fibrosis” DNA chip was prepared according to assignee's SDGI method (PCT Application Publication No. WO 01/75180) from growth-arrested human fibroblasts.
Probes for microarray hybridization were derived from these treated fibroblasts. In accordance with the present invention, treatments that are relevant for diabetic nephropathy development were used, such as glucose deprivation or hypoxia (modeling ischemic conditions that develop in fibrotic kidney); high glucose (modeling diabetic hyperglycemia) and TGF-β induction (modeling a fibrotic condition that is characterized by growth factor and cytokine imbalance).
In the next step, the RNA from these treated fibroblasts was extracted and used for preparation of probes for microarray hybridization. The scheme of hybridization is presented below: […]

Ax1 [6] = conditions: vascular smooth muscle cells; cited from earlier work
mesangial cells = conditions: together with the extracellular domain of Ax1; blockade of the Gas6-mediated pathway; cited from earlier work

What does the source list for TGF-β?
enhancement in collagen production [1]: 110-180%; endogenous Ax1 expression (Western blot) (Ax1 [2]; Rat1 cells, TGF-β 5 ng/ml for 24 hr): slight up-regulation; Ax1 protein level (Western blot) (Ax1 [2]; serum starved Rat1 cells, 5 ng/ml TGF-β, following 15 min): induces Ax1 protein level; increase in the fibroblast proliferation rate ([3]; 2 and 20 ng/ml, after 24 hrs treatment): ~60%; Ax1 phosphorylation (Ax1 [4]): Increase in its phosphorylation; induction of Ax1 expression (Ax1 [5]): at least 2 fold

Which “effect on angiotensin-stimulated Ax1 expression” value (Ax1 [6]) does the source give for `CCCCc1nc(Cl)c(CO)n1Cc1ccc(-c2ccccc2-c2nn[nH]n2)cc1` [losartan] here?
The value was “blocked the stimulatory effect of angiotensin on Ax1 expression”.

Which mesangial cell proliferation (mesangial cells) does the source give for `CC(=O)CC(c1ccccc1)c1c(O)c2ccccc2oc1=O` (stereo not shown) [wafarin] here?
Its mesangial cell proliferation is “inhibit mesangial cell proliferation”.

What does the source list for `CC(=O)N(O)CCCCCNC(=O)CCC(=O)N(O)CCCCCNC(=O)CCC(=O)N(O)CCCCCN` [DFO, deferoxamine mesylate]?
decrease in fibroblast proliferation ([3]; after 16 hr incubation): 20%; decrease in fibroblast proliferation ([3]; after 5 days of treatment): 80%
